These results are taken from patent publication US20170246236A1, “METHODS AND COMPOSITIONS FOR ENHANCED DELIVERY OF COMPOUNDS” (Sanford Burnham Prebys Medical Discovery Institute, priority 2010, published 2017).

Residues, ends and D or L forms follow the SMILES beside them.

One data set has as its system GBM tumors. Nature of the data set: In vivo peptide homing. As to conditions: 200 μg Rd-labeled peptide i.v., 3 hours, 005 tumor mice. More on the design: species or system mouse. The protocol: In vivo peptide homing. […] Rhodamine-labeled CGKRK (200 μg) was intravenously injected into the mice and allowed to circulate for 3 hours. The mice were perfused with PBS through the heart under anesthesia, and tissues were collected and processed for fluorescence analysis.

Data set [1] concerns mitochondria in U87 cells. Description: Live cell imaging, co-localization with mitochondrial marker. Type of data set: cell-based, human. On the procedure: (§1) Cell proliferation assay and imaging. The MTT [3-[4,5-dimethylthazol-2-yl]-2,5-diphenyl tetrazolium-bromide] assay (Molecular Probes, Eugene, Oreg.) was used to quantify cell proliferation. Cells were seeded in complete medium into 96-well plates (5×10^3 cells/well), and allowed to attach overnight at 37° C. in a humidified 5% CO2 atmosphere. The culture media was then removed and various concentrations of peptides or NWs were added. After 48, and 72 hours, 10 μL of the MTT reagent (5 mg/mL in PBS) was added to each well. The medium was removed from cells after 3 hours, and […] of DMSO:MEOH (1:1 v/v) were added to each well. The plates were read at a wavelength of 595 nm. For live cell imaging, cells seeded on glass-bottom plates (Willco, Amsterdam, Netherlands), and 24 hours later, the cells were washed and incubated with FAM-labeled peptides or NWs for 45 min at 37° C. The cells were then rinsed three times with PBS and incubated for an additional 15 min at 37° C. with […] MitoTracker Red (Molecular Probes, Eugene, Oreg.) followed by nuclear staining with Hoechst 33342 DNA dyes (Molecular Probe, Eugene, Oreg.) for 12 min. The cells were analyzed with Fluoview FV 500 confocal microscopy (Olympus America, Center Valley, Pa.).

The next data set has as its system mitochondria in HUVEC. The data set is described as above. Type of data set: cell-based, human. On the procedure: as §1
The subject of data set [2] is proteins from brain tumor extracts. Description: CGKRK-binding proteins in glioblastoma tumor extracts (affinity matrix). As to conditions: mass spectrometry. An excerpt:
Proteins from brain tumor extracts were bound to insolubilized (SulfoLink Resin; Pierce Biotechnology) CGKRK peptide. Proteins were eluted from the affinity matrix with either CGKRK peptide or with CREKA (SEQ ID NO:92) peptide (negative control). Silver-stained gels were used to show the proteins eluted with CGKRK and CREKA (SEQ ID NO:92). […] The bands in the CGKRK eluate were identified by mass spectrometry as the proteins listed.

The subject of a further data set is purified mitochondria. Description: Peptide/phage binding to purified mitochondria. As to conditions: increasing concentrations of unlabeled peptide. Further details: species or system mouse. The protocol:
Isolation of mitochondria and peptide/phage binding. Mitochondria were isolated from livers of Balb/c mice using differential centrifugation with buffers from a Pierce mitochondrial isolation kit for tissue according to the manufacture's instruction (Pierce Biotechnology, Rockford, Ill.). To test the binding of the CGKRK peptide to mitochondria, purified mitochondria were pre-incubated with various concentrations of non-labeled CGKRK or control peptide (CREKA; SEQ ID NO:92) for 30 min 4° C. FAM-CGKRK was then added and incubated for an additional 1 hour. The binding of the FAM peptide was quantified by fluorescence. In phage binding assays, purified mitochondria were suspended in 10 ml DMEM supplemented with 1% BSA, and incubated with 5×10^8 plaque-forming units (pfu) of peptide-displaying phage, overnight at 4° C. The mitochondria were washed 3 times with DMEM/BSA, the phage were collected with lysogeny broth containing 1% NP-40, and quantified by plaque assay.

In the case of `N=C(N)NCCC[C@H](NC(=O)[C@H](CCCCN)NC(=O)CNC(=O)[C@@H](N)CS)C(=O)N[C@@H](CCCCN)C(=O)O` [CGKRK, Cys-Gly-Lys-Arg-Lys] (H-CGKRK-OH), the “peptide in normal tissues” value in the data set on GBM tumors was “not in normal tissues”; in the data set with GBM tumors (listed as CGKRK peptide), “appeared in kidney but not in heart, pancreas, liver, lung, or spleen”.
For the compound `CC(C)C[C@@H](NC(=O)[C@H](N)CCCCN)C(=O)N[C@H](C)C(=O)N[C@H](CCCCN)C(=O)N[C@H](CC(C)C)C(=O)N[C@H](C)C(=O)N[C@H](CCCCN)C(=O)N[C@H](CCCCN)C(=O)N[C@H](CC(C)C)C(=O)N[C@H](C)C(=O)N[C@H](CCCCN)C(=O)N[C@H](CC(C)C)C(=O)N[C@H](C)C(=O)N[C@H](CCCCN)C(=O)N[C@@H](CS)C(=O)NCC(=O)N[C@@H](CCCCN)C(=O)N[C@@H](CCCNC(=N)N)C(=O)N[C@@H](CCCCN)C(=O)O` [CGKRK-D[KLAKLAK]2 peptide], the co-localization with mitochondria entry (in data set [1]; in the data set on mitochondria in HUVEC) was “colocalized with mitochondria” throughout.
As to “CREKA: Unrelated control peptide, SEQ ID NO:92 (clot binding/homing peptide)”, the “proteins eluted from CGKRK affinity matrix” value in data set [2] is recorded as “failed to elute any visible protein bands”. Moreover, the “inhibition of FAM-CGKRK binding to mitochondria by unlabeled peptide” value in the data set on purified mitochondria is listed as “not”.
Regarding “D[KLAKLAK]2: α-helical amphipathic pro-apoptotic peptide, SEQ ID NO:3 (KLAKLAKKLAKLAK; D-amino acids; membrane perturbing molecule) [reference compound]”, the co-localization with mitochondria entry (in data set [1]; with mitochondria in HUVEC) was “did not” each time.
